Data taken from US20130210034A1, “COMPLEX PHOSPHOPROTEIN ACTIVATION PROFILES” (BECKMAN COULTER, INC., priority 2005, published 2013).
Several values for one entry are separate records, joined by “and”; a condition that tells them apart may be missing. Equal values may be shown once.

Tests used:
Assay in all cases: Cytokine-stimulated phosphorylation in immunophenotypically defined cell populations from healthy donor BM (flow cytometry);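 for pAKT S/N ratio: Phosphoprotein MFI normalized to lymphocyte MFI as internal negative control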;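 for pERK S/N ratio: Phosphoprotein MFI normalized to lymphocyte MFI as internal negative control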;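 for pS6 S/N ratio: Phosphoprotein MFI normalized to lymphocyte MFI as internal negative control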;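 for pSTAT3 S/N ratio: Phosphoprotein MFI normalized to lymphocyte MFI as internal negative control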
Type in all cases: cell-based, human
pAKT = conditions: for pAKT Percent (%) Responding Cells, Mean / pAKT S/N ratio: healthy donor BM, mean ± SD
Method: (§1) Bone marrow (BM) samples were collected in 7.5 mL Iscove's modified Dulbecco's medium (IMDM) supplemented with 100U penicillin, 0.01 mg/mL streptomycin, and 70 μg/mL heparin sodium salt from 10 patients undergoing hip replacement surgery, who were otherwise healthy. These patients were from a pool of surgery patients, age 49 to 77, and represented […] patients. […] These BM samples were rinsed twice with IMDM to release cells, filtered using a 100 μm Nylon cell strainer to remove marrow particles, and centrifuged for at RT fro 7 minutes at 200 g. The cell pellet was washed twice with sterile IMDM to remove traces of fat and re-suspended in IMDM to a concentration of 3×10^7 cells/mL.
(§2) To assess the signal transduction response after growth factor simulation, a series comprising two sets of tubes including about 3×10^6 cells/100 μL were incubated at 37° C. for 30 minutes. After this pre-incubation period, tubes with then processes with either a stimulant or inhibitor. […] To examine the effects of protein phosphorylation inhibition, tubes were incubated with an inhibitor cocktail comprising 100 μM/100 μL UO126, 1 μM/100 μL LY294002, and 1 μM/100 μL rapamycin. One unstimulated tube receiving no stimulant or inhibitor was processed to assess basal levels of phospho-protein expression. After stimulation the cells were immediately fixed in 10% formaldehyde solution at 37° C. Pre-labeling with CD13, CD16 and CD64 antibodies was carried out 20 minutes prior to formaldehyde fixation. After fixation, one set of tubes was permeabilized without methanol for pAKT, pERK and pS6 staining and the other for 80% methanol permeabilized for pSTAT3 and pSTAT5 staining. After permeablization, the cells were washed in PBS with 2% BSA and blocked by re-suspended in 75 μL of PBS comprising 25% heat inactivated normal mouse serum, 25% normal rabbit serum. To stain cells with fluorescent conjugated monoclonal antibodies, samples were incubated on ice for 45 minutes in 100 μL of an antibody staining solution including either: 1) CD15-Pacific Orange, CD34-Phycoerythrin-Texas Red, CD117-Phycoerythrin-Cyanin 5.5, CD45-Allophycocyanin-Alexa Fluor 750 (or CD45-Pacific Orange, in which case CD15-Pacific Orange was omitted), pS6-Pacific Blue, pERK-Alexa Fluor 488 and pAKT-Alexa Fluor 647 or 2) CD15-Pacific Orange, CD34-Phycoerythrin-Texas Red, CD117-Phycoerythrin-Cyanin 5.5, CD45-Allophycocyanin-Alexa Fluor 750 or CD45-Pacific Blue, pSTAT3-Alexa Fluor 488 and pSTAT5-Phycoerythrin. The stained cells were washed twice with ice cold PBS containing 2% BSA and centrifuged at 800 g for 6 minutes at 4° C. The supernatant was discarded and cells re-suspended in 250 μL of chilled wash buffer for data acquisition. Stained cells were examined using either GALIOS flow cytometer (Beckman Coulter) or CYAN ADP (Beckman Coulter) equipped with 488 nm, 405 nm and 635 nm lasers to detect the degree of fluorescence. Data were analyzed using FCS Express (De Novo Software, CA) analysis software.
(§3) Specific phosphoprotein expression of pERK, pS6, pAKT, pSTAT5, and pSTAT3 was examined in seven discrete phenotypically defined populations based on 7-color immunophenotyping (FIG. 1). The percent of responding (phosphorprotein positive) cells for each of these populations was determined from individual single parameter histograms based on a fixed integration region set on the inhibitor treated control at about 3% positives.

pERK = conditions: healthy donor BM, mean ± SD
Method: as §1, §2, §3

pS6 = conditions: healthy donor BM, mean ± SD
Method: as §1, §2, §3

pSTAT3 = conditions: healthy donor BM, mean ± SD
Method: as §1, §2, §3

pSTAT5 = conditions: for pSTAT5 Percent (%) Responding Cells, Mean / pSTAT5 S/N ratio: healthy donor BM, mean ± SD
Method: as §1, §2, §3

Granulocyte-Macrophage Colony-Stimulating Factor [GM-CSF]
pAKT Percent (%) Responding Cells, Mean (pAKT; CD34^+ (CD34^+/CD117^+ cells)): 22.5 ± 23.4%
pAKT S/N ratio (pAKT; CD34^+ (CD34^+/CD117^+ cells)): 3.2 ± 3.3
pAKT Percent (%) Responding Cells, Mean (pAKT; CD117^+ (CD34^−/CD117^+ cells)): 13.3 ± 23.7%
pAKT S/N ratio (pAKT; CD117^+ (CD34^−/CD117^+ cells)): 2.2 ± 1.3
pAKT Percent (%) Responding Cells, Mean (pAKT; G1, immature myeloid cells): 11.2 ± 19.8%
pAKT S/N ratio (pAKT; G1, immature myeloid cells): 3.0 ± 1.6
pAKT Percent (%) Responding Cells, Mean (pAKT; G2, intermediate myeloid cells): 17.6 ± 26.1%
pAKT S/N ratio (pAKT; G2, intermediate myeloid cells): 3.2 ± 1.6
pAKT Percent (%) Responding Cells, Mean (pAKT; G3, mature myeloid cells): 17.5 ± 26.0%
pAKT S/N ratio (pAKT; G3, mature myeloid cells): 3.7 ± 1.9
pAKT Percent (%) Responding Cells, Mean (pAKT; Mono, monocytes): 17.6 ± 27.3%
pAKT S/N ratio (pAKT; Mono, monocytes): 3.6 ± 2.3
pAKT, Normal Sample (pAKT; Table 7 comparison value): 16.2
pERK Percent (%) Responding Cells, Mean (pERK; CD34^+ (CD34^+/CD117^+ cells)): 30.1% and 30.1 ± 11.5%
pERK S/N ratio (pERK; CD34^+ (CD34^+/CD117^+ cells)): 10.6 ± 4.4
pERK S/N ratio (pERK; CD117^+ (CD34^−/CD117^+ cells)): 3.8 ± 0.4
pERK Percent (%) Responding Cells, Mean (pERK; G1, immature myeloid cells): 53.9% and 53.9 ± 20.8%
pERK S/N ratio (pERK; G1, immature myeloid cells): 6.2 ± 1.8
pERK Percent (%) Responding Cells, Mean (pERK; G2, intermediate myeloid cells): 91.5 ± 16.0%
pERK S/N ratio (pERK; G2, intermediate myeloid cells): 9.4 ± 2.4
pERK Percent (%) Responding Cells, Mean (pERK; G3, mature myeloid cells): 91.5% and 90.7 ± 15.0%
pERK S/N ratio (pERK; G3, mature myeloid cells): 11.3 ± 3.1
pERK Percent (%) Responding Cells, Mean (pERK; Mono, monocytes): 52.0 ± 22.6%
pERK S/N ratio (pERK; Mono, monocytes): 11.4 ± 4.5
pS6 Percent (%) Responding Cells, Mean (pS6; CD34^+ (CD34^+/CD117^+ cells)): 60.1% and 60.1 ± 14.1%
pS6 S/N ratio (pS6; CD34^+ (CD34^+/CD117^+ cells)): 35.7 ± 31.7
pS6 Percent (%) Responding Cells, Mean (pS6; CD117^+ (CD34^−/CD117^+ cells)): 38.5 ± 11.5%
pS6 S/N ratio (pS6; CD117^+ (CD34^−/CD117^+ cells)): 52.7 ± 44.0
pS6 Percent (%) Responding Cells, Mean (pS6; G1, immature myeloid cells): 3.4 ± 1.3%
pS6 S/N ratio (pS6; G1, immature myeloid cells): 5.1 ± 3.2
pS6 Percent (%) Responding Cells, Mean (pS6; G2, intermediate myeloid cells): 11.3 ± 15.9%
pS6 S/N ratio (pS6; G2, intermediate myeloid cells): 5.7 ± 3.7
pS6 Percent (%) Responding Cells, Mean (pS6; G3, mature myeloid cells): 8.3 ± 7.0%
pS6 S/N ratio (pS6; G3, mature myeloid cells): 5.7 ± 3.6
pS6 Percent (%) Responding Cells, Mean (pS6; Mono, monocytes): 76.9 ± 11.8%
pS6 S/N ratio (pS6; Mono, monocytes): 25.8 ± 20.8
pSTAT3 Percent (%) Responding Cells, Mean (pSTAT3; CD34^+ (CD34^+/CD117^+ cells)): 10.4 ± 7.9%
pSTAT3 S/N ratio (pSTAT3; CD34^+ (CD34^+/CD117^+ cells)): 1.7 ± 0.2
pSTAT3 Percent (%) Responding Cells, Mean (pSTAT3; CD117^+ (CD34^−/CD117^+ cells)): 7.9 ± 8.7%
pSTAT3 S/N ratio (pSTAT3; CD117^+ (CD34^−/CD117^+ cells)): 2.6 ± 0.8
pSTAT3 Percent (%) Responding Cells, Mean (pSTAT3; G1, immature myeloid cells): 58.7% and 58.7 ± 39.9%
pSTAT3 S/N ratio (pSTAT3; G1, immature myeloid cells): 6.8 ± 2.5
pSTAT3 Percent (%) Responding Cells, Mean (pSTAT3; G2, intermediate myeloid cells): 59.1 ± 30.4%
pSTAT3 S/N ratio (pSTAT3; G2, intermediate myeloid cells): 7.3 ± 2.1
pSTAT3 Percent (%) Responding Cells, Mean (pSTAT3; G3, mature myeloid cells): 76.0 ± 30.8%
pSTAT3 S/N ratio (pSTAT3; G3, mature myeloid cells): 8.8 ± 2.7
pSTAT3 S/N ratio (pSTAT3; Mono, monocytes): 2.3 ± 0.3
pSTAT5 Percent (%) Responding Cells, Mean (pSTAT5; CD34^+ (CD34^+/CD117^+ cells)): 74.7%
pSTAT5 S/N ratio (pSTAT5; CD34^+ (CD34^+/CD117^+ cells)): 19.8 ± 9.7
pSTAT5 Percent (%) Responding Cells, Mean (pSTAT5; CD117^+ (CD34^−/CD117^+ cells)): 58.2 ± 11.8%
pSTAT5 Percent (%) Responding Cells, Mean (pSTAT5; G2, intermediate myeloid cells): 98.8 ± 0.4%
pSTAT5 S/N ratio (pSTAT5; G2, intermediate myeloid cells): 18.3 ± 5.5
pSTAT5 S/N ratio (pSTAT5; Mono, monocytes): 14.7 ± 4.5
pSTAT5, Normal Sample (pSTAT5; Table 7 comparison value, matches percent responding CD34^+ cells of Tables 1-5): 74.7 and 75.1
